Tests used:
Type in all cases: cell-based, human
HT-29 = test: SRB colorimetric assay of cell growth and viability, HT-29; details: 48 hours exposure
SK-MEL-28 = test: SRB colorimetric assay of cell growth and viability, SK-MEL-28; details: 48 hours exposure, SRB
IGROV-ET = test: SRB colorimetric assay of cell growth and viability, IGROV-ET; details: 48 hours exposure, SRB
DU-145 = test: SRB colorimetric assay of cell growth and viability, DU-145; details: 48 hours exposure, SRB
IGROV-1 = test: SRB colorimetric assay of cell growth and viability, IGROV-1; details: 48 hours exposure, SRB
LoVo = test: SRB colorimetric assay of cell growth and viability, LoVo; details: 48 hours exposure
HeLa-APL = test: SRB colorimetric assay of cell growth and viability, HeLa-APL; details: 48 hours exposure
PANC-1 = test: SRB colorimetric assay of cell growth and viability, PANC-1; details: 48 hours exposure
K-562 = test: SRB colorimetric assay of cell growth and viability, K-562; details: 48 hours exposure
A-549 = test: SRB colorimetric assay of cell growth and viability, A-549; details: 48 hours exposure
LNCaP = test: SRB colorimetric assay of cell growth and viability, LNCaP; details: 48 hours exposure, SRB
Excerpt: The finality of this assay is to interrupt the growth of a “in vitro” tumor cell culture by means a continued exhibition of the cells to the sample to be testing.
This form of the assay employs 96 well cell culture microplates of 9 mm diameter (Faircloth, 1988; Mosmann, 1983). Most of the cell lines are obtained from American Type Culture Collection (ATCC) derived from different human cancer types.
Cells are maintained in RPMI 1640 10% FBS, supplemented with 0.1 g/l penicillin and 0.1 g/l streptomycin sulfate and then incubated at 37° C., 5% CO2 and 98% humidity. For the experiments, cells were harvested from subconfluent cultures using trypsin and resuspended in fresh medium before plating.
Cells are seeded in 96 well microtiter plates, at 5×10^3 cells per well in aliquots of 195 μL medium, and they are allowed to attach to the plate surface by growing in drug free medium for 18 hours. Afterward, samples are added in aliquots of 5 μL in a ranging from 10 to 10^−8 μg/mL, dissolved in DMSO:EtOH:PBS (0.5:0.5:99). After 48 hours exposure, the antitumor effect are measured by the SRB methodology: cells are fixed by adding 50 μL of cold 50% (wt/vol) trichloroacetic acid (TCA) and incubating for 60 minutes at 4° C. Plates are washed with deionized water and dried. One hundred μL of SRB solution (0.4% wt/vol in 1% acetic acid) is added to each microtiter well and incubated for 10 minutes at room temperature. Unbound SRB is removed by washing with 1% acetic acid. Plates are air dried and bound stain is solubilized with Tris buffer. Optical densities are read on a automated spectrophotometric plate reader at a single wavelength of 490 nm.
The values for mean+/− SD of data from triplicate wells are calculated. Some parameters for cellular responses can be calculated: GI=growth inhibition, TGI=total growth inhibition (cytostatic effect) and LC=cell killing (cytotoxic effect).

HeLa = test: SRB colorimetric assay of cell growth and viability, HeLa; details: 48 hours exposure
LoVo-Dox = test: SRB colorimetric assay of cell growth and viability, LoVo-Dox; details: 48 hours exposure
In short: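 After 48 hours continuous exposure to samples spanning 10 to 10^−8 μg/mL, biomass was quantified by sulforhodamine B staining of TCA-fixed cells (OD 490 nm). Cells, 5×10^3 per well in RPMI 1640 10% FBS, had attached 18 hours first; GI, TGI and LC derived from triplicate wells.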

For C/C=C1\NC(=O)[C@H](Cc2ccccc2)NC(=O)[C@@H](C(C)C)NC(=O)[C@@H]([C@@H](C)CC)NC(=O)[C@H](NC(=O)[C@H](NC(=O)[C@H](CCCN)NC(=O)[C@@H]2CC[C@H](c3ccccc3)N2C(=O)[C@H](NC(=O)[C@@H](NC(=O)[C@@H](NC(=O)[C@H](NC(=O)CC[C@@H](C)CC)C(C)C)[C@@H](C)O)C(C)C)C(C)C)[C@@H](C)CC)[C@@H](C)OC(=O)[C@H](C(C)C)NC1=O [Compound 62, [(5R)-Ph-Pro^9, (4S)-MeHex^14]-KF], the “TGI HT-29” value (HT-29; HT-29) was 6.43E−06 Molar, the “TGI MEL-28” value (SK-MEL-28) was 6.43E−06 Molar and the “TGI IGROV-ET” value (IGROV-ET) was 6.43E−06 Molar. For the same compound, the “TGI DU-145” value (DU-145) was 6.43E−06 Molar, the “TGI IGROV” value (IGROV-1) was 6.43E−06 Molar and the “TGI LOVO” value (LoVo; LOVO) was 6.43E−06 Molar. The “TGI HELA-APL” value (HeLa-APL; HELA-APL) was 6.43E−06 Molar, the “TGI PANC-1” value (PANC-1; PANC-1) was 6.43E−06 Molar and the “TGI K-562” value (K-562; K-562) was 6.43E−06 Molar. For the same compound, the “TGI A-549” value (A-549; A-549) was 6.43E−06 Molar, the “TGI LN-caP” value (LNCaP) was 6.43E−06 Molar and the “TGI HELA” value (HeLa; HELA) was 6.43E−06 Molar. The “TGI LOVO-DOX” value (LoVo-Dox; LOVO-DOX) was 6.43E−06 Molar.
C/C=C1\NC(=O)[C@H](Cc2ccccc2)NC(=O)[C@@H](C(C)C)NC(=O)[C@@H]([C@@H](C)CC)NC(=O)[C@H](NC(=O)[C@H](NC(=O)[C@H](CCCC[N+](C)(C)C)NC(=O)[C@H]2CCCN2C(=O)[C@H](NC(=O)[C@@H](NC(=O)[C@@H](NC(=O)[C@H](NC(=O)CC[C@@H](C)CC)C(C)C)[C@@H](C)O)C(C)C)C(C)C)[C@@H](C)CC)[C@@H](C)OC(=O)[C@H](C(C)C)NC1=O [Compound 93, [N^ε(Me)3-Lys^8, (4S)-MeHex^14]-KF] was tested, and the “TGI HT-29” value (HT-29; SRB) was 2.72E−07 Molar, the GI50 (HT-29; SRB, read-out: GI50 HT-29) was 0.168 µM and the CC50 (HT-29; SRB, read-out: LC50 HT-29) was 0.439 µM. The GI50 (SK-MEL-28) was 0.32 µM, the “TGI MEL-28” value (SK-MEL-28) was 9.51E−07 Molar and the CC50 (SK-MEL-28; read-out: LC50 MEL-28) was 2.6 µM. For the same compound, the GI50 (IGROV-ET) was 0.266 µM, the “TGI IGROV-ET” value (IGROV-ET) was 7.17E−07 Molar and the CC50 (IGROV-ET; read-out: LC50 IGROV-ET) was 2.49 µM. For the same compound, the GI50 (DU-145) was 0.00621 µM, the LC50 (concentration causing 50% net cell kill) (DU-145) was 0.044 µM and the “TGI DU-145” value (DU-145) was 1.66E−08 Molar. For the same compound, the GI50 (IGROV-1) was 0.214 µM, the LC50 (concentration causing 50% net cell killing) (IGROV-1) was 0.866 µM and the “TGI IGROV” value (IGROV-1) was 3.90E−08 Molar. The GI50 (LoVo; SRB) was 0.0808 µM, the “TGI LOVO” value (LoVo; SRB) was 2.08E−07 Molar and the CC50 (LoVo; SRB, read-out: LC50 LOVO) was 0.537 µM. For the same compound, the GI50 (HeLa-APL; SRB) was 0.651 µM, the “TGI HELA-APL” value (HeLa-APL; SRB) was 1.43E−06 Molar and the CC50 (HeLa-APL; SRB, read-out: LC50 HELA-APL) was 3.15 µM. The GI50 (PANC-1; SRB) was 1.11 µM, the “TGI PANC-1” value (PANC-1; SRB) was 2.08E−06 Molar and the CC50 (PANC-1; SRB, read-out: LC50 PANC-1) was 3.9 µM. For the same compound, the GI50 (K-562; SRB) was 1.49 µM, the “TGI K-562” value (K-562; SRB) was 2.72E−06 Molar and the CC50 (K-562; SRB, read-out: LC50 K-562) was 4.94 µM. The “TGI A-549” value (A-549; SRB) was 6.97E−07 Molar, the GI50 (A-549; SRB, read-out: GI50 A-549) was 0.186 µM and the CC50 (A-549; SRB, read-out: LC50 A-549) was 2.44 µM. The “TGI LN-caP” value (LNCaP) was 2.16E−06 Molar, the GI50 (LNCaP; read-out: GI50 LN-caP) was 0.795 µM and the CC50 (LNCaP; read-out: LC50 LN-caP) was 5.88 µM. The GI50 (HeLa; SRB) was 0.491 µM, the “TGI HELA” value (HeLa; SRB) was 1.25E−06 Molar and the CC50 (HeLa; SRB, read-out: LC50 HELA) was 3.25 µM. The GI50 (LoVo-Dox; SRB) was 0.0782 µM, the “TGI LOVO-DOX” value (LoVo-Dox; SRB) was 1.82E−07 Molar and the CC50 (LoVo-Dox; SRB, read-out: LC50 LOVO-DOX) was 0.426 µM.

From US20070117743A1, “New antitumoral compounds” (priority 2003, published 2007)
